Measurements published in patent US20080038809A1, “ISOLATED LECTIN POLYPEPTIDES CONSISTING OF TRUNCATED […] UDP-GalNAc:POLYPEPTIDE N- ACETYLGALACTOSAMINYLTRANSFERASES” (GLYCOZYM APS, priority 2002, published 2008).
Entries after “also recorded” stand apart in the source; their conditions may differ.

What was measured:
[1] = test system: MUC1 expression in CHO1d1D/MUC1F-clone2 cells; assay: MUC1 expression in cell lysates by immunoprecipitation, SDS-PAGE and western blot; format: cell-based, Chinese hamster (CHO 1d1D cells); human MUC1; settings: 2 mM; for MUC1 expression: cells in GalNAc or Gal and GalNAc; for SDS-PAGE migration of MUC1 (O-glycan extension): cells in Gal and GalNAc
Description: FIG. 12 is an SDS-PAGE Western analysis of GalNAcα-benzyl inhibition of MUC1 expression in CHO 1d1D cells stably transfected with a full coding MUC1 construct. […] Cells were further treated with 2 mM GalNAcα-benzyl (lanes 1, 4, 7, 10), 2 mM GlcNAcα-benzyl (lanes 2, 5, 8, 11) or no inhibitor (lanes 3, 6, 9, 12). Cells were washed and lysed at 24 or 48 hours and the lysates subjected to immunoprecipitation with monoclonal antibody HMFG2, which broadly recognize MUC1 glycoforms. Immunoprecipitates were analysed by SDS-PAGE and western blot using HMFG2 antibody to detect MUC1 expression. Lane M indicates molecular markers with assigned mw. Lane C includes a control MUC1 180-mer tandem repeat peptide which has been GalNAc-glycosylated with 3 moles GalNAc per repeat using GalNAc-T2. The sharp bands migrating at 100-200 kd are immunoglobulins indicated by IgG.
FIG. 13 is a SDS-PAGE Western analysis resulting from the same experiment as in FIG. 12, but using a novel monoclonal antibody, 5E5, to visualize MUC1 expression. […] Cells were further treated with 2 mM GalNAcα-benzyl (lanes 1, 4), 2 mM GlcNAcα-benzyl (lanes 2, 5) or no inhibitor (lanes 3, 6). Cells were washed and lysed at 48 hours and the lysates subjected to immunoprecipitation with monoclonal antibody HMFG2, which broadly recognize MUC1 glycoforms. Immunoprecipitates were analysed by SDS-PAGE and western blot using 5E5 antibody, which selectively recognize GalNAc-glycosylated MUC1 expression and show no reactivity with unglycosylated MUC1 peptides. Lanes M and C as described in legend to FIG. 12.
Cells were further treated with 2 mM GalNAcα-benzyl (lanes 1, 4, 7, 10), 2 mM GalNAcβ-benzyl (lanes 2, 5, 8, 11) or 2 mM GlcNAcα-benzyl (lanes 3, 6, 9, 12). Cells were washed and lysed at 36 hours and the lysates subjected to immunoprecipitation with monoclonal antibodies HMFG2 (lanes 1-6) or 5E5 (lanes 7-12). Immunoprecipitates were analysed by SDS-PAGE and western blot using HMFG2 antibody. Lanes M and C as described in legend to FIG. 7.
FIG. 15 is an SDS-PAGE Western analysis resulting from the same experiment as FIG. 14, except that expression is visualized by the monoclonal antibody 5E5. […] Cells were further treated with 2 mM GalNAcα-benzyl (lanes 1, 4, 7, 10), 2 mM GalNAcβ-benzyl (lanes 2, 5, 8, 11) or 2 mM GlcNAcα-benzyl (lanes 3, 6, 9, 12). Cells were washed and lysed at 36 hours and the lysates subjected to immunoprecipitation with monoclonal antibodies HMFG2 (lanes 1-6) or 5E5 (lanes 7-12). Immunoprecipitates were analysed by SDS-PAGE and western blot using 5E5 antibody. Lanes M and C as described in legend to FIG. 12.
We therefore investigated the effect of treatment with GalNAcα-benzyl of CHO1d1D/MUC1F-clone2 cells grown in the presence of GalNAc. CHO1d1D/MUC1F-clone2 cells were seeded in 6 well plates at a density of 0.2×10^6 per well and were grown for 6 hours in Hams F12 medium with serum until approximately 30% subconfluent. […] After 18 hours, the medium was replaced with fresh Optimem containing the sugars and benzyl derivatives as above and grown for 12-48 hours. Initially we analyzed surface expression of MUC1 by immunocytology. Cells were washed once in PBS-CMF (phosphate buffered saline Calcium and Magnesium free) after carefully removing the medium from the wells and subsequently fixed in 2 ml 3% paraformaldehyde at 25° C. for 20 min followed by three washes with PBS-CMF 3 times. Free aldehyde groups were quenched by incubating in 2 mL 50 mM Ammonium Chloride in PBS-CMF for 10 min, followed by three washes with PBS-CMF and three washes with 5 min incubations each with PBS-CMF containing 0.2% Fish Skin Gelatin (Sigma). Immunostaining of cells was performed by incubation with monoclonal antibodies for 40 min at 25° C., followed by three washes with PBS-CMF and three washes of 5 min each with PBS-CMF containing 0.2% Fish Skin Gelatin. […]

[2] = test system: MUC5AC secretion, HT29MTX cells; assay: MUC5AC secretion from HT29MTX cells by SDS-PAGE Western blotting of media; format: cell-based, human; settings: 5 mM, 14 days, LUM5-1 antibody
Description: FIG. 17 illustrates SDS-PAGE Western analysis of MUC5AC secretion from HT29MTX cells using polyclonal anti-MUC5AC antibody LUM5-1. In order to evaluate GalNAcβ-benzyl as an inhibitor of mucin glycosylation and secretion we used the HT-29 metotrexate (MTX) cultured colon carcinoma cells of mucin secreting phenotype. HT-29 MTX cells have a goblet cell like phenotype with constitutive production of MUC5AC. Cells were continuously grown up to 21 days in the presence of 5 mM GalNAcα-benzyl, 5 mM GalNAcβ-benzyl, 5 mM GlcNAcα-benzyl and without inhibitor. […] In striking contrast, MUC5AC was not detected in the media from cells treated with GalNAcα-benzyl (Lane 3) or GalNAcβ-benzyl (Lane 4). Results shown are from media collected at 14 days.
In order to evaluate GalNAcβ-benzyl as an inhibitor of mucin glycosylation and secretion we used the cultured colon carcinoma cells of mucin secreting phenotypes: HT-29 metotrexate (MTX) cells selected from the HT-29 cell line by culture in the presence of MTX (kind gift from G. Huet, France). The HT-29 MTX cells were selected to yield a goblet cell like phenotype with constitutive production of MUC5AC. In order to ensure proper goblet cell differentiation the HT29MTX cell line were continuously grown up to 21 days in the presence of 5 mM GalNAcα-benzyl, 5 mM GalNAcβ-benzyl, 5 mM GlcNAcα-benzyl and without inhibitor using culture conditions as described in Hennebicq-Reig et al. (Permanent exposure of mucin-secreting HT-29 cells to benzyl-N-acetyl-alpha-D-galactosaminide induces abnormal O-glycosylation of mucins and inhibits constitutive and stimulated MUC5AC secretion. Biochem J. 1998; 334:283-95). […] Furthermore the viscosity of the media from cells with and without inhibitor was evaluated using viscosity micro-measurement.

[3] = 36 hours, 5E5 blot, cells grown in GalNAc

Structure (SMILES) | MUC1 expression ([1]; 48 hours, HMFG2 blot) | MUC5AC in media [2] | reduction in MUC1 expression [1, 3] | reduction in MUC1 expression ([1]; 36 hours, HMFG2 blot) | SDS-PAGE migration of MUC1 (O-glycan extension) ([1]; 36 hours) | MUC1 expression ([1]; 48 hours, 5E5 blot) | SDS-PAGE migration of MUC1 (O-glycan extension) ([1]; 48 hours)
CC(=O)N[C@H]1[C@@H](OCc2ccccc2)O[C@H](CO)[C@@H](O)[C@@H]1O [GlcNAcα-benzyl] | no effect on MUC1 expression and O-glycosylation compared to untreated cells | detected MUC5AC in media | – | – | – | – | –
CC(=O)N[C@H]1[C@H](OCc2ccccc2)O[C@H](CO)[C@H](O)[C@@H]1O [GalNAcβ-benzyl] | – | diminished secretion of MUC5AC | strong inhibition of MUC1 expression; also recorded: same or better reduction in MUC1 expression as treatment with GalNAcα-benzyl | same or better reduction in MUC1 expression as treatment with GalNAcα-benzyl | no change in the migration of MUC1 | – | –
CC(=O)N[C@H]1[C@@H](OCc2ccccc2)O[C@H](CO)[C@H](O)[C@@H]1O [GalNAcα-benzyl, benzyl-N-acetyl-alpha-D-galactosaminide] | significant reduction in MUC1 expression | diminished secretion of MUC5AC | strong inhibition of MUC1 expression | – | – | significant reduction in MUC1 expression | marked shift in migration to lower molecular weight migrating species
